Consider 22 compounds from patent US12263171B2, “7-, 8-, and 10-substituted amino triazolo quinazoline derivatives as adenosine receptor antagonists, pharmaceutical compositions and their use” (Merck Sharp & Dohme LLC, priority 2018, dated 2025).

The term IC50 denotes the point on the concentration scale where inhibition reaches its midpoint. The low end stands for inhibition by little substance, the high end for a need for much substance.

In test [1] the target is human A2a adenosine receptor (Homo sapiens (Human), UniProt P29274). As to the kind of experiment: A2a receptor affinity radioligand binding assay ([3H] SCH58261, membranes from HEK293 or CHO cells). The conditions noted are these: for IC50: unstarred values: radioligand binding. The protocol:
The A2a receptor affinity binding assay measured the amount of binding of a tritiated ligand with high affinity for the A2a adenosine receptor to membranes made from HEK293 or CHO cells recombinantly expressing the human A2a adenosine receptor, in the presence of varying concentrations of a compound of the invention.
Measurement of A2a Binding Affinity Using Radioligand Binding
148 μL, (5 μg/mL) membranes (Perkin Elmer, Cat. No. RBHA2aM4001A) and 2 μL compounds of the invention to be tested (test compound) were transferred to individual wells of a 96-well polypropylene assay plate and incubated for 15 to 30 minutes at room temperature. [^3H] SCH58261 ((7-(2-phenylethyl)-5-amino-2-(2-furyl)-pyrazolo-[4,3-e]-1,2,4-triazolo[1,5-c]pyrimidine)) was diluted in assay buffer (50 mM Tris pH 7.4, 10 mM MgCl2, 0.005% Tween20) to a concentration of 4 nM and 50 μL transferred to each well of the assay plate. […] The assay plate was incubated at room temperature for 60 minutes with agitation. […] Filtering was achieved by aspirating the contents of the assay plate for 5 seconds, then washing and aspirating the contents three times with ice-cooled wash buffer (50 mM Tris-HCl pH 7.4, 150 mM NaCl) and allowing the vacuum manifold to dry the plate for 30 seconds. The filter plate was incubated for at least 1 hour at 55° C. and allowed to dry. The bottom of the filter plate was sealed with backing tape. 40 μL. […] The plate was incubated for at least 20 minutes, and then the amount of radioactivity remaining in each well was determined using a TopCown® (Perkin Elmer) scintillation counter. After normalization to total and non-specific binding, the percent effect at each compound concentration was calculated. The plot of percent effect versus the log of compound concentration was analyzed electronically using a 4-parameter logistic fit based on the Levenberg-Marquardt algorithm to generate IC50 values.

Test [2] concerns the target human A2b adenosine receptor (Homo sapiens (Human), UniProt P29275). In words: A2b radioligand filtration binding assay (tritiated proprietary A2b antagonist, HEK293 membranes). The conditions noted are these: for IC50: unstarred values: radioligand binding; for A2B binding % inh. @ 10000 nM: unstarred. Here is the method: Measurement of A2b Binding Affinity
The reported affinity of the compounds of the invention for the human A2b adenosine receptor was determined experimentally using a radioligand filtration binding assay. This assay measures the amount of binding of a tritiated proprietary A2b receptor antagonist, in the presence and absence of a compound of the invention, to membranes made from HEK293 cells recombinantly expressing the human A2b adenosine receptor (Perkin Elmer, Cat. No. ES-013-C).
The filter plate was incubated for at least 1 hour at 55° C. and allowed to dry. The bottom of the filter plate was then sealed with backing tape. […] The plates were then incubated for at least 20 minutes, and then the amount of radioactivity remaining in each well was determined using a TopCount® (Perkin Elmer) scintillation counter. After normalization to total and non-specific binding, the percent effect at each compound concentration was calculated. The plot of percent effect versus the log of compound concentration was analyzed electronically using a 4-parameter logistic fit based on the Levenberg-Marquardt algorithm to generate IC50 values.

Sequence of human A2a adenosine receptor (P29274 whole entry): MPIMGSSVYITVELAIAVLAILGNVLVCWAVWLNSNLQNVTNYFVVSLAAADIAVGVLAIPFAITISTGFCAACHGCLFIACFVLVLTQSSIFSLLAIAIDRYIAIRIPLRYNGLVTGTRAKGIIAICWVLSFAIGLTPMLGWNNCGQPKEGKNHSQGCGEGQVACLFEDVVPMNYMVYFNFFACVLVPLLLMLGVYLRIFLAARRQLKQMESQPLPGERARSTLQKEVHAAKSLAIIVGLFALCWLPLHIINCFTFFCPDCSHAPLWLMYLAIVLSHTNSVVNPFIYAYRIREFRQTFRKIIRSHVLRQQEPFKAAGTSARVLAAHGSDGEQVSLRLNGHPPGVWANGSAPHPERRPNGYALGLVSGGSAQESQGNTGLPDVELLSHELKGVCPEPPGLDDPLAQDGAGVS
Sequence of human A2b adenosine receptor (P29275 whole entry): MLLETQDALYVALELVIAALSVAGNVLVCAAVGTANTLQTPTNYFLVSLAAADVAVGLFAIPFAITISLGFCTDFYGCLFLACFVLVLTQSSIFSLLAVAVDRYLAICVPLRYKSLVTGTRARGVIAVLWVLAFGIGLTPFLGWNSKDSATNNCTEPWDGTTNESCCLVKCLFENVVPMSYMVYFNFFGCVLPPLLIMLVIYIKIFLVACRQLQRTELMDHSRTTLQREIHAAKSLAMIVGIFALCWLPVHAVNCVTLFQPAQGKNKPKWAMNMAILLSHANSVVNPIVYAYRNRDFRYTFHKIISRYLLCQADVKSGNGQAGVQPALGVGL

Turning to `Cn1cc(N2CCCC(c3nc4c5c(Cl)ccc(Cl)c5nc(N)n4n3)C2)cn1` (single isomer, unassigned) [Example 169, (R or S)-7, 10-dichloro-2-(1-(1-methyl-1H-pyrazol-4-yl)piperidin-3-yl)-[1,2,4]triazolo[1,5-c]quinazolin-5-amine], the IC50 in test [1] came to 7.7 nM; in test [2] it was 4160 nM.

In test [1], `Cn1cc(N2CCCC(c3nc4c5c(C(F)(F)F)cccc5nc(N)n4n3)C2)cn1` (single isomer, unassigned) [Example 170, (R or S)-2-(1-(1-methyl-1H-pyrazol-4-yl)piperidin-3-yl)-10-(trifluoromethyl)-[1,2,4]triazolo[1,5-c]quinazolin-5-amine] gave an IC50 of 204 nM. Further, the “A2B binding % inh. @ 10000 nM” value in test [2] amounted to 28% inh. @ 10000 nM.

Turning to `Cc1cccc2c1nc(N)n1nc(C3CCCN(c4cnn(C)c4)C3)nc21` (single isomer, unassigned) [Example 171, (R or S)-7-methyl-2-(1-(1-methyl-1H-pyrazol-4-yl)piperidin-3-yl)-[1,2,4]triazolo[1,5-c]quinazolin-5-amine], the IC50 is 34.9 nM in test [1] and 956 nM in test [2].

Regarding `Cn1cc(N2CCCC(c3nc4c5c(F)ccc(F)c5nc(N)n4n3)C2)cn1` (single isomer, unassigned) [Example 172, (R or S)-7,10-difluoro-2-(1-(1-methyl-1H-pyrazol-4-yl)piperidin-3-yl)-[1,2,4]triazolo[1,5-c]quinazolin-5-amine], the values for the IC50 in test [1] and in test [2] were 34.2 nM and 375 nM, respectively.

As for `COc1c(Cl)ccc2c1nc(N)n1nc(C3CCCN(c4cnn(C)c4)C3)nc21` (single isomer, unassigned) [Example 173, (R or S)-8-chloro-7-methoxy-2-(1-(1-methyl-1H-pyrazol-4-yl)piperidin-3-yl)-[1,2,4]triazolo[1,5-c]quinazolin-5-amine], the IC50 stood at 3.6 nM in test [1] and 403 nM in test [2].

`Cn1cc(N2CCCC(c3nc4c5ccc(C(F)(F)F)cc5nc(N)n4n3)C2)cn1` (single isomer, unassigned) [Example 174, (R or S)-2-(1-(1-methyl-1H-pyrazol-4-yl)piperidin-3-yl)-8-(trifluoromethyl)-[1,2,4]triazolo[1,5-c]quinazolin-5-amine]: the IC50 in test [1] was determined as 44.3 nM; in test [2] it was 480 nM.

Take `COc1ccc2c(c1)nc(N)n1nc([C@@H]3C[C@H](C)CN(c4cnn(CC(C)(C)O)c4)C3)nc21` (single isomer, unassigned) [Example 195D]: the IC50 in test [1] was determined as 0.8 nM; in test [2] it was 84.9 nM.

With `C[C@H]1CC[C@@H](c2nc3c4ccc(Br)cc4nc(N)n3n2)CN1c1cnn(CC(C)(C)O)c1` (single isomer, unassigned) [Example 198, 1-(4-((2S,5R or 2R,5S)-5-(5-amino-8-bromo-[1,2,4]triazolo[1,5-c]quinazolin-2-yl)-2-methylpiperidin-1-yl)-4H-pyrazol-1-yl)-2-methylpropan-2-ol], the values for the IC50 in test [1] and in test [2] were 0.4 nM and 8.4 nM, respectively.

Consider `Cc1ccc2c(c1)nc(N)n1nc(C3CCCN(c4cnn(C)c4)C3)nc21` (single isomer, unassigned) [Example 199, (R or S)-8-methyl-2-(1-(1-methyl-1H-pyrazol-4-yl)piperidin-3-yl)-[1,2,4]triazolo[1,5-c]quinazolin-5-amine], for which the IC50 worked out at 22.5 nM in test [1] and 257 nM in test [2].

For `Cn1cc(N2CCCC(c3nc4c5ccc(Cl)cc5nc(N)n4n3)C2)cn1` (single isomer, unassigned) [Example 200, (R or S)-8-chloro-2-(1-(1-methyl-1H-pyrazol-4-yl)piperidin-3-yl)-[1,2,4]triazolo[1,5-c]quinazolin-5-amine], the IC50 in test [1] is 11.8 nM; in test [2], 152 nM.

Consider `C[C@H]1CC[C@@H](c2nc3c4ccc(C5CC5)cc4nc(N)n3n2)CN1c1cnn(CC(C)(C)O)c1` (single isomer, unassigned) [Example 205, 1-(4-((2S, 5R or 2R,5S)-5-(5-amino-8-cyclopropyl-[1,2,4]triazolo[1,5-c]quinazolin-2-yl)-2-methylpiperidin-1-yl)-1H-pyrazol-1-yl)-2-methylpropan-2-ol], for which the IC50 came to 0.4 nM in test [1] and 5.5 nM in test [2].

With `Cc1ccc2c(c1)nc(N)n1nc([C@@H]3CC[C@H](C)N(c4cnn(CC(C)(C)O)c4)C3)nc21` (single isomer, unassigned) [Example 206, 1-(4-((2S, 5R or 2R,5S)-5-5-amino-8-methyl-[1,2,4]triazolo[1,5-c]quinazolin-2-yl)-2-methylpiperidin-1-yl)-1H-pyrazol-1-yl)-2-methylpropan-2-ol], the IC50 in test [1] worked out at 0.3 nM; in test [2], 20.7 nM.

For the compound `C[C@H]1CC[C@@H](c2nc3c4ccc(C5CNC5)cc4nc(N)n3n2)CN1c1cnn(CC(C)(C)O)c1` (single isomer, unassigned) [Example 208, 1-(4-((2S,5R or 2R,5S)-5-(5-amino-8-(azetidin-3-yl)-[1,2,4]triazolo[1,5-c]quinazolin-2-yl)-2-methylpiperidin-1-yl)-1H-pyrazol-1-yl)-2-methylpropan-2-ol], in test [1] (@ 10000 nM, unstarred), the “A2A binding % inh. @ 10000 nM” value is listed as 10% inh @ 10000 nM % inh. The “A2B binding % inh. @ 10000 nM” value in test [2] is listed as 5% inh. @ 10000 nM.

For `COc1ccc2c(c1)nc(N)n1nc([C@@H]3CC[C@H](C)N(c4cnn(C5CCC[C@@H]5O)c4)C3)nc21` (single isomer, unassigned) [Example 210B], the IC50 in test [1] is 0.1 nM; in test [2], 3.2 nM.

In the case of `COc1cccc2c1nc(N)n1nc([C@@H]3CCCN(c4cnn(CC(F)(F)F)c4)C3)nc21` [Example 9, (R)-7-methoxy-2-(1-(1-(2,2,2-trifluoroethyl)-1H-pyrazol-4-yl)piperidin-3-yl)-[1,2,4]triazolo[1,5-c]quinazolin-5-amine], the IC50 in test [1] turned out to be 0.7 nM; in test [2] it was 1 nM.

Turning to `COc1cccc2c1nc(N)n1nc([C@@H]3CCCN(c4cnn(C)c4)C3)nc21` [Example 17, (R)-7-methoxy-2-(1-(1-methyl-1H-pyrazol-4-yl)piperidin-3-yl)-[1,2,4]triazolo[1,5-c]quinazolin-5-amine], the IC50 in test [1] is 1 nM; in test [2], 24.7 nM.

Turning to `COc1cccc2c1nc(N)n1nc([C@@H]3CCCN(c4cnn(C5(C)CC5)c4)C3)nc21` [Example 20, (R)-7-methoxy-2-(1-(1-(1-methylcyclopropyl)-1H-pyrazol-4-yl)piperidin-3-yl)-[1,2,4]triazolo[1,5-c]quinazolin-5-amine], the IC50 in test [1] amounted to 0.5 nM; in test [2], 45.1 nM.

Consider `COc1cccc2c1nc(N)n1nc([C@@H]3CCCN(c4cnn(C5CCOCC5)c4)C3)nc21` [Example 21, (R)-7-methoxy-2-(1-(1-(tetrahydro-2H-pyran-4-yl)-1H-pyrazol-4-yl)piperidin-3-yl)-[1,2,4]triazolo[1,5-c]quinazolin-5-amine], for which the IC50 was 0.6 nM in test [1] and 111 nM in test [2].

Turning to `COc1cccc2c1nc(N)n1nc([C@@H]3CCCN(c4cnn(CC5(O)CCC5)c4)C3)nc21` [Example 23, (R)-1-((4-(3-(5-amino-7-methoxy-[1,2,4]-triazolo[1,5-c]quinazolin-2-yl)piperidin-1-yl)-1H-pyrazol-1-yl)methyl)cyclobutan-1-ol], the results for the IC50 in test [1] and in test [2] were 1 nM and 64.2 nM, respectively.

With `COc1cccc2c1nc(N)n1nc([C@@H]3CCCN(c4cnn([C@H]5CCCC[C@H]5O)c4)C3)nc21` [Example 24, (1R,2S)-2-(4-((R)-3-(5-amino-7-methoxy-[1,2,4]triazolo[1,5-c]quinazolin-2-yl)piperidin-1-yl)-1H-pyrazol-1-yl)cyclohexan-1-ol], the results for the IC50 in test [1] and in test [2] were 2.9 nM and 6.9 nM, respectively.

For `COc1cccc2c1nc(N)n1nc([C@@H]3CCCN(c4cnn([C@@H]5CCCC[C@@H]5O)c4)C3)nc21` [Example 25], the IC50 turned out to be 2.3 nM in test [1] and 5.7 nM in test [2].

Regarding `CNC(=O)C(C)(C)n1cc(N2CCC[C@@H](c3nc4c5cccc(OC)c5nc(N)n4n3)C2)cn1` [Example 26, (R)-2-(4-(3-(5-annino-7-methoxy-[1,2,4]triazolo[1,5-c]quinazolin-2-yl)piperidin-1-yl)-1H-pyrazol-1-yl)-N,2-dimethylpropanamide], the results for the IC50 in test [1] and in test [2] were 3.5 nM and 2 nM, respectively.
